# Tests used:
# Format in all cases: in vivo
# [1] = tested on: barnyardgrass (Echinochloa crus-galli); test: Test A pre-/postemergence: barnyardgrass; settings: for Barnyardgrass plant response rating: Postemergence; for Plant response rating, Barnyardgrass: Preemergence
# How it was run: (§1)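 Rating scale 0–100 (100 = complete control), visual, ~10 days after application in the greenhouse. Applications: preemergence directed soil spray; postemergence at 1–2 leaves.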
# [2] = tested on: crabgrass, large (large crabgrass, Digitaria sanguinalis); test: Test A pre-/postemergence: crabgrass, large; settings: for Crabgrass, Large plant response rating: Postemergence; for Plant response rating, Crabgrass, Large: Preemergence
# How it was run: as §1
# [3] = tested on: foxtail, giant (giant foxtail, Setaria faberii); test: Test A pre-/postemergence: foxtail, giant; settings: for Foxtail, Giant plant response rating: Postemergence; for Plant response rating, Foxtail, Giant: Preemergence
# How it was run: as §1
# [4] = tested on: morningglory (Ipomoea spp.); test: Test A pre-/postemergence: morningglory; settings: for Morningglory plant response rating: Postemergence; for Plant response rating, Morningglory: Preemergence
# How it was run: as §1
# [5] = tested on: pigweed (Amaranthus retroflexus); test: Test A pre-/postemergence: pigweed; settings: for Pigweed plant response rating: Postemergence; for Plant response rating, Pigweed: Preemergence
# How it was run: as §1
# [6] = tested on: velvetleaf (Abutilon theophrasti); test: Test A pre-/postemergence: velvetleaf; settings: for Velvetleaf plant response rating: Postemergence; for Plant response rating, Velvetleaf: Preemergence
# How it was run: as §1
# [7] = tested on: wheat (Triticum aestivum); test: Test A pre-/postemergence: wheat; settings: for Wheat plant response rating: Postemergence; for Plant response rating, Wheat: Preemergence
# How it was run: as §1
# [8] = tested on: corn (Zea mays); test: Test A pre-/postemergence: corn; settings: for Corn plant response rating: Postemergence; for Plant response rating, Corn: Preemergence
# How it was run: as §1
# [9] = tested on: rice (Oryza sativa); test: Test C flooded paddy test: rice; settings: scale 0 to 100 (0 no effect, 100 complete control)
# How it was run: (§2)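 Rating: visual, 0–100 (100 = complete control), versus untreated controls after 13 to 15 greenhouse days. Treatment went into paddy water held at 3 cm over the soil, on plants grown to two leaves.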
# [10] = tested on: sedge, umbrella (small-flower umbrella sedge, Cyperus difformis); test: Test C flooded paddy test: sedge, umbrella; settings: scale 0 to 100 (0 no effect, 100 complete control)
# How it was run: as §2
# [11] = tested on: ducksalad (Heteranthera limosa); test: Test C flooded paddy test: ducksalad; settings: scale 0 to 100 (0 no effect, 100 complete control)
# How it was run: as §2
# [12] = tested on: barnyardgrass (Echinochloa crus-galli); test: Test C flooded paddy test: barnyardgrass; settings: scale 0 to 100 (0 no effect, 100 complete control)
# How it was run: as §2
# [13] = 125 g ai/ha, 0 to 100 scale, 0 is no effect, 100 is complete control
# [14] = 500 g ai/ha, visual rating on 0 to 100 scale (0 no effect, 100 complete control), approximately ten days
# [15] = 125 g ai/ha, 0 to 100 scale (0 no effect, 100 complete control)
# [16] = 500 g ai/ha, 0 to 100 scale, 0 is no effect, 100 is complete control
# [17] = Flood (flooded paddy test), 62 g ai/ha, visual rating after 13 to 15 days
# [18] = Flood (flooded paddy test), 125 g ai/ha, visual rating after 13 to 15 days
# [19] = Flood (flooded paddy test), 250 g ai/ha, visual rating after 13 to 15 days
smiles,measurement,setting,value
Cc1nn(-c2ccc(F)cc2)nc1Cn1c(Cl)nc(C(F)(F)F)c1Cl [Compound 20],Barnyardgrass plant response rating,[1]; [13],0
same,Barnyardgrass plant response rating,[1]; [14],0
same,"Plant response rating, Barnyardgrass",[1]; [15],0
same,"Plant response rating, Barnyardgrass",[1]; [16],0
same,"Crabgrass, Large plant response rating",[2]; [13],0
same,"Crabgrass, Large plant response rating",[2]; [14],10
same,"Plant response rating, Crabgrass, Large",[2]; [15],0
same,"Plant response rating, Crabgrass, Large",[2]; [16],0
same,"Foxtail, Giant plant response rating",[3]; [13],0
same,"Foxtail, Giant plant response rating",[3]; [14],10
same,"Plant response rating, Foxtail, Giant",[3]; [15],0
same,"Plant response rating, Foxtail, Giant",[3]; [16],0
same,Morningglory plant response rating,[4]; [13],0
same,Morningglory plant response rating,[4]; [14],10
same,"Plant response rating, Morningglory",[4]; [15],0
same,"Plant response rating, Morningglory",[4]; [16],0
same,Pigweed plant response rating,[5]; [13],0
same,Pigweed plant response rating,[5]; [14],30
same,"Plant response rating, Pigweed",[5]; [15],0
same,"Plant response rating, Pigweed",[5]; [16],0
same,Velvetleaf plant response rating,[6]; [13],0
same,Velvetleaf plant response rating,[6]; [14],20
same,"Plant response rating, Velvetleaf",[6]; [15],0
same,"Plant response rating, Velvetleaf",[6]; [16],0
same,Wheat plant response rating,[7]; [13],0
same,Wheat plant response rating,[7]; [14],0
same,"Plant response rating, Wheat",[7]; [15],0
same,"Plant response rating, Wheat",[7]; [16],0
same,Corn plant response rating,[8]; [13],0
same,Corn plant response rating,[8]; [14],10
same,"Plant response rating, Corn",[8]; [15],0
same,"Plant response rating, Corn",[8]; [16],0
same,"Plant response rating, Rice",[9]; [17],0
same,"Plant response rating, Rice",[9]; [18],0
same,"Plant response rating, Rice",[9]; [19],0
same,"Plant response rating, Rice","[9]; Flood, 31 g ai/ha",0
same,"Plant response rating, Sedge, Umbrella",[10]; [17],0
same,"Plant response rating, Sedge, Umbrella",[10]; [18],0
same,"Plant response rating, Sedge, Umbrella",[10]; [19],0
same,"Plant response rating, Sedge, Umbrella","[10]; Flood, 31 g ai/ha",0
same,"Plant response rating, Ducksalad",[11]; [17],0
same,"Plant response rating, Ducksalad",[11]; [18],0
same,"Plant response rating, Ducksalad",[11]; [19],0
same,"Plant response rating, Ducksalad","[11]; Flood, 31 g ai/ha",0
same,"Plant response rating, Barnyardgrass",[12]; [17],0
same,"Plant response rating, Barnyardgrass",[12]; [18],0
same,"Plant response rating, Barnyardgrass",[12]; [19],0
same,"Plant response rating, Barnyardgrass","[12]; Flood, 31 g ai/ha",0
Cc1nn(-c2ccc(C(F)(F)F)cc2)nc1Oc1cccc(Cl)c1 [Compound 84],Barnyardgrass plant response rating,[1]; [13],0
same,Barnyardgrass plant response rating,[1]; [14],10
same,"Plant response rating, Barnyardgrass",[1]; [15],0
same,"Plant response rating, Barnyardgrass",[1]; [16],0
same,"Crabgrass, Large plant response rating",[2]; [13],10
same,"Crabgrass, Large plant response rating",[2]; [14],50
same,"Plant response rating, Crabgrass, Large",[2]; [15],0
same,"Plant response rating, Crabgrass, Large",[2]; [16],60
same,"Foxtail, Giant plant response rating",[3]; [13],10
same,"Foxtail, Giant plant response rating",[3]; [14],20
same,"Plant response rating, Foxtail, Giant",[3]; [15],0
same,"Plant response rating, Foxtail, Giant",[3]; [16],30
same,Morningglory plant response rating,[4]; [13],30
same,Morningglory plant response rating,[4]; [14],30
same,"Plant response rating, Morningglory",[4]; [15],0
same,"Plant response rating, Morningglory",[4]; [16],0
same,Pigweed plant response rating,[5]; [13],40
same,Pigweed plant response rating,[5]; [14],90
same,"Plant response rating, Pigweed",[5]; [15],0
same,"Plant response rating, Pigweed",[5]; [16],50
same,Velvetleaf plant response rating,[6]; [13],10
same,Velvetleaf plant response rating,[6]; [14],20
same,"Plant response rating, Velvetleaf",[6]; [15],0
same,"Plant response rating, Velvetleaf",[6]; [16],0
same,Wheat plant response rating,[7]; [13],0
same,Wheat plant response rating,[7]; [14],0
same,"Plant response rating, Wheat",[7]; [15],0
same,"Plant response rating, Wheat",[7]; [16],0
same,Corn plant response rating,[8]; [13],10
same,Corn plant response rating,[8]; [14],30
same,"Plant response rating, Corn",[8]; [15],0
same,"Plant response rating, Corn",[8]; [16],0
same,"Plant response rating, Rice",[9]; [18],20
same,"Plant response rating, Rice",[9]; [19],20
same,"Plant response rating, Rice","[9]; Flood, 31 g ai/ha",0
same,"Plant response rating, Rice","[9]; Flood, 62 g ai/ha",0
same,"Plant response rating, Sedge, Umbrella",[10]; [18],0
same,"Plant response rating, Sedge, Umbrella",[10]; [19],20
same,"Plant response rating, Sedge, Umbrella","[10]; Flood, 31 g ai/ha",0
same,"Plant response rating, Sedge, Umbrella","[10]; Flood, 62 g ai/ha",0
same,"Plant response rating, Ducksalad",[11]; [18],0
same,"Plant response rating, Ducksalad",[11]; [19],40
same,"Plant response rating, Ducksalad","[11]; Flood, 31 g ai/ha",0
same,"Plant response rating, Ducksalad","[11]; Flood, 62 g ai/ha",0
same,"Plant response rating, Barnyardgrass",[12]; [18],0
same,"Plant response rating, Barnyardgrass",[12]; [19],10
same,"Plant response rating, Barnyardgrass","[12]; Flood, 31 g ai/ha",0
same,"Plant response rating, Barnyardgrass","[12]; Flood, 62 g ai/ha",0
Cc1nn(-c2ccc(Cl)nc2)nc1C(=O)c1cccc(C(F)(F)F)c1 [Compound 72],Barnyardgrass plant response rating,[1]; [13],0
same,Barnyardgrass plant response rating,[1]; [14],10
same,"Plant response rating, Barnyardgrass",[1]; [15],0
same,"Plant response rating, Barnyardgrass",[1]; [16],0
same,"Crabgrass, Large plant response rating",[2]; [13],0
same,"Crabgrass, Large plant response rating",[2]; [14],10
same,"Plant response rating, Crabgrass, Large",[2]; [15],0
same,"Plant response rating, Crabgrass, Large",[2]; [16],10
same,"Foxtail, Giant plant response rating",[3]; [13],0
same,"Foxtail, Giant plant response rating",[3]; [14],10
same,"Plant response rating, Foxtail, Giant",[3]; [15],0
same,"Plant response rating, Foxtail, Giant",[3]; [16],20
same,Morningglory plant response rating,[4]; [13],0
same,Morningglory plant response rating,[4]; [14],10
same,"Plant response rating, Morningglory",[4]; [15],0
same,"Plant response rating, Morningglory",[4]; [16],0
same,Pigweed plant response rating,[5]; [13],10
same,Pigweed plant response rating,[5]; [14],70
same,"Plant response rating, Pigweed",[5]; [15],0
same,"Plant response rating, Pigweed",[5]; [16],10
same,Velvetleaf plant response rating,[6]; [13],0
same,Velvetleaf plant response rating,[6]; [14],10
same,"Plant response rating, Velvetleaf",[6]; [15],0
same,"Plant response rating, Velvetleaf",[6]; [16],0
same,Wheat plant response rating,[7]; [13],0
same,Wheat plant response rating,[7]; [14],0
same,"Plant response rating, Wheat",[7]; [15],0
same,"Plant response rating, Wheat",[7]; [16],0
same,Corn plant response rating,[8]; [13],0
same,Corn plant response rating,[8]; [14],10
same,"Plant response rating, Corn",[8]; [15],0
same,"Plant response rating, Corn",[8]; [16],0
same,"Plant response rating, Rice",[9]; [17],0
same,"Plant response rating, Rice",[9]; [18],0
same,"Plant response rating, Rice",[9]; [19],0
same,"Plant response rating, Rice","[9]; Flood, 31 g ai/ha",0
same,"Plant response rating, Sedge, Umbrella",[10]; [17],0
same,"Plant response rating, Sedge, Umbrella",[10]; [18],0
same,"Plant response rating, Sedge, Umbrella",[10]; [19],0
same,"Plant response rating, Sedge, Umbrella","[10]; Flood, 31 g ai/ha",0
same,"Plant response rating, Ducksalad",[11]; [17],0
same,"Plant response rating, Ducksalad",[11]; [18],0
same,"Plant response rating, Ducksalad",[11]; [19],0
same,"Plant response rating, Ducksalad","[11]; Flood, 31 g ai/ha",0
same,"Plant response rating, Barnyardgrass",[12]; [17],0
same,"Plant response rating, Barnyardgrass",[12]; [18],0
same,"Plant response rating, Barnyardgrass",[12]; [19],0
same,"Plant response rating, Barnyardgrass","[12]; Flood, 31 g ai/ha",0

# From patent US9302999B2, “Substituted triazoles as herbicides” (E. I. DU PONT DE NEMOURS AND COMPANY, priority 2012, dated 2016)
